# Data reported in US20210275498A1, “IMIDAZOLYL ETHANAMIDE PENTANDIOIC ACID FOR USE IN THERAPY OF SYMPTOMS RELATED TO EXPOSURE TO LETHAL RADIATION” (priority 2018, published 2021).
# Tests used:
# Assay type in all cases: in vivo
# [1] = tested on: C57BL/6 mice; experiment: ARS scoring (posture, coat, behavior) after whole-body irradiation; set-up: key to Supporting variable: ARS scores (trend): positive trend (descriptively) +; negative trend (descriptively) −; no difference (descriptively) 0; settings: for ARS posture score, most frequent grade (mode): control group 2 mild
# Description: Scores on a scale of 1 to 4 (minimal, mild, moderate and severe) for posture, coat, and behavior were recorded twice daily per SNBL SOP, beginning on Day −3, except on the day of scheduled necropsy when scoring occurred only once. Observations were performed by 5 individuals during the course of the study.
# After Day 0, the first ARS scoring began in the morning and the second ARS scoring began 4 to 6 hours following the completion of the morning ARS scoring. On the day of scheduled necropsy, ARS scoring occurred in the morning, prior to necropsy.
# (§1) Based on the ARS Scoring SNBL SOP, if the sum of the three parameter scores totaled 8 or higher, the animal was considered moribund and was euthanized with an unscheduled necropsy performed according to the moribund animal SOP.
# [2] = tested on: C57BL/6 mice; experiment: Peripheral hematology after whole-body irradiation; set-up: key to Supporting variable: Hematology (trend): positive trend (descriptively) +; negative trend (descriptively) −; no difference (descriptively) 0
# Excerpt: The primary outcome of this study was mortality and secondary outcomes were changes in hematology (peripheral and bone marrow). The endpoints were chosen to follow Animal Rule requirements that state that animal study endpoint be clearly related to the clinical benefit (generally, the enhancement of survival or prevention of major morbidity). The secondary endpoints were chosen to potentially contribute to an understanding of the disease or condition and a characterization of the treatment effect.
# [3] = tested on: C57BL/6 mice; experiment: Mortality / survival to Day 30 after whole-body irradiation (5.8 Gy or 6.0 Gy)
# Excerpt: Based on a previously reported study (Williams et al. 2010, Plett et al. 2012, Chua et al. 2014, Singh et al., 2015), the mouse model was developed to investigate LD25 and LD50. The whole-body irradiation and selected dose serve as a translational in vivo model mimicking possible radiation exposure to humans following a nuclear incident.
# Animals (C57BL/6 mice) were supplied by Jackson Laboratories (Bar Harbor, Me. facility). Animals were maintained at SNBL USA (Everett, Wash. facility) as stock prior to study assignment and were screened for health by veterinary staff prior to use on study. 205 animals were assigned to treatment groups.
# Oral application of Myelo001 would be conducive for nuclear or other radiation incidents and was chosen for this study. […] The human equivalent dose is estimated to be 4 mg/kg based on allometric calculations.
# as §1
# Cageside mortality checks were conducted per SOP, twice daily after Day −3. Morning and afternoon checks began 2 to 3 hours after the completion of the respective ARS scorings. Individual assessments were only documented for apparently moribund animals by re-scoring, or for found dead animals by removal.
# Survival data were summarized descriptively and graphically using the Kaplan-Meier method. Further, death rates were tabulated by treatment. The equality of two or more survivor curves was tested with log rank tests. In addition, Cox-regression models were used to estimate hazard ratios, p-values and 95% confidence intervals (95% CI).
# The focus of the survival analysis is irradiation related death between irradiation on Day 0 and Day 30. Thus, the scheduled necropsies on Day 7 and Day 14 or deaths unrelated to radiation (Animals 2041, 9012 and 9021) were considered as censored events.
# [4] = tested on: C57BL/6 mice; experiment: Gross pathology and histopathology (testes degeneration, bone marrow cellularity) after whole-body irradiation; set-up: key to Supporting variable: Testes degradation (trend): positive trend (descriptively) +; negative trend (descriptively) −; no difference (descriptively) 0; settings: for severity of testes degradation compared to Group 2: Day 14
# Excerpt: (§2) FIG. 13 Testes. (A): Percentage of severity of testes degeneration according to four categories (minimal, mild, moderate and marked) in group 2 (VL (POx1); 2), group 3 (ML (IPx2); 3), group 4 (ML (POx2); 4) and group 5 (ML (POx1); 5). (B): Percentage of severity of testes degeneration according to four categories (minimal, mild, moderate and marked) in group 2 (VL (POx1);2), 6 (GL (SCx1); 6) and 7 (M/GL (PO/SCx1); 7). (C): Percentage of severity of testes degeneration according to four categories (minimal, mild, moderate and marked) in group 8 (VH (POx1); 8 and 9 (MH (POx1); 9).
# as §2, with “14 Bone marrow cellularity.” for “13 Testes.”, “bone marrow cellularity decrease” for “severity of testes degeneration”
# [5] = tested on: C57BL/6 mice; experiment: as above; set-up: key to Supporting variable: Bone marrow celluarity (trend) / Supporting variable: Testes degradation (trend): positive trend (descriptively) +; negative trend (descriptively) −; no difference (descriptively) 0
# [6] = Group 3 ML (IPx2): 25 mg/kg IP, Day −3 to 0 (6x), prophylactic, 5.8 Gy
# [7] = Group 5 ML (POx1): 50 mg/kg per os SID Day −2, −1, 0, prophylactic, 5.8 Gy
# [8] = Group 9 MH (POx1): 50 mg/kg per os SID Day 1, 2, 3, therapeutic, 6.0 Gy
# [9] = Group 4 ML (POx2): 25 mg/kg per os, Day −3 to 0 (6x), prophylactic, 5.8 Gy
smiles,measurement,setting,value
"O=C(O)CCCC(=O)NCCc1c[nH]cn1 [Myelo001, 5-{[2-(1H-imidazol-4-yl)ethyl]amino}-5-oxo-pentanoic acid]",frequency of normal posture score in comparison with control group,"[1]; Day 15, Group 3 ML (IPx2): 25 mg/kg IP, Day −3 to 0 (6x), prophylactic, 5.8 Gy",did not result in such changes
same,"ARS posture score, most frequent grade (mode)","[1]; Day 15, Group 4 ML (POx2): 25 mg/kg per os, Day −3 to 0 (6x), prophylactic, 5.8 Gy",normal
same,"ARS posture score, most frequent grade (mode)","[1]; Day 15, Group 5 ML (POx1): 50 mg/kg per os SID Day −2, −1, 0, prophylactic, 5.8 Gy",normal
same,ARS coat grade,"[1]; Day 21, Group 9 MH (POx1): 50 mg/kg per os SID Day 1, 2, 3, therapeutic, 6.0 Gy, control Group 8 mild (20%) and moderate (27%)",mostly normal
same,frequency of normal posture score in comparison to control group 8,"[1]; Day 30, Group 9 MH (POx1): 50 mg/kg per os SID Day 1, 2, 3, therapeutic, 6.0 Gy",trend for the increased frequency of normal posture score
same,Supporting variable: ARS scores (trend),[1]; [6],−
same,Supporting variable: ARS scores (trend),[1]; [7],+
same,Supporting variable: ARS scores (trend),[1]; [8],+
same,"hemoglobin, red blood cells, hematocrit compared to group 8","[2]; Day 14 and Day 30, Group 9 MH (POx1): 50 mg/kg per os SID Day 1, 2, 3, therapeutic, 6.0 Gy",in favor of group 9
same,Supporting variable: Hematology (trend),[2]; [9],0
same,Dead (irradiation related deaths),[3]; [6],3
same,"Irradiation related death rate, Rate (per 100 Days)",[3]; [6],1.30 per 100 Days
same,Survival after 30 days (Kaplan-Meier estimate),[3]; [6],0.54
same,Time at Risk,[3]; [6],231 days
same,"Time to 10% death, Time",[3]; [6],13 days
same,"Hazard ratio (Cox regression, risk of radiation induced death)","[3]; Group 3 ML (IPx2): 25 mg/kg IP, Day −3 to 0 (6x), prophylactic, 5.8 Gy, reference group VL (POx1), 2",2.48
same,"Quantity ratio of survival probability (dose reduction factor, DRF), day 30, relative to control group","[3]; Group 3 ML (IPx2): 25 mg/kg IP, Day −3 to 0 (6x), prophylactic, 5.8 Gy, vs VL (POx1), 2",0.7
same,Dead (irradiation related deaths),[3]; [9],6
same,"Irradiation related death rate, Rate (per 100 Days)",[3]; [9],0.96 per 100 Days
same,Time at Risk,[3]; [9],627 days
same,"Time to 10% death, Time",[3]; [9],15 days
same,"Hazard ratio (Cox regression, risk of radiation induced death)","[3]; Group 4 ML (POx2): 25 mg/kg per os, Day −3 to 0 (6x), prophylactic, 5.8 Gy, reference group VL (POx1), 2",1.49
same,Dead (irradiation related deaths),[3]; [7],3
same,"Irradiation related death rate, Rate (per 100 Days)",[3]; [7],0.44 per 100 Days
same,Time at Risk,[3]; [7],680 days
same,"Time to 10% death, Time",[3]; [7],21 days
same,"Hazard ratio (Cox regression, risk of radiation induced death)","[3]; Group 5 ML (POx1): 50 mg/kg per os SID Day −2, −1, 0, prophylactic, 5.8 Gy, reference group VL (POx1), 2",0.64
same,Dead (irradiation related deaths),[3]; [8],3
same,"Irradiation related death rate, Rate (per 100 Days)",[3]; [8],0.48 per 100 Days
same,Time at Risk,[3]; [8],611 days
same,"Time to 10% death, Time",[3]; [8],23 days
same,survival,"[3]; Group 9 MH (POx1): 50 mg/kg per os SID Day 1, 2, 3, therapeutic, 6.0 Gy (LD50/30), control Group 8 56%",86%
same,"Hazard ratio (Cox regression, risk of radiation induced death)","[3]; Group 9 MH (POx1): 50 mg/kg per os SID Day 1, 2, 3, therapeutic, 6.0 Gy, reference group VH (POx1), 8",0.32
same,severity of testes degradation compared to Group 2,[4]; [6],reduced
same,severity of testes degradation compared to Group 2,[4]; [9],reduced
same,severity of testes degradation compared to Group 2,[4]; [7],reduced
same,Supporting variable: Testes degradation (trend),[4]; [9],+
same,Supporting variable: Testes degradation (trend),[4]; [7],+
same,Supporting variable: Testes degradation (trend),[4]; [8],+
same,"testes degeneration, proportion by severity category","[5]; Day 14, n.s. (p=0.264), Group 9 MH (POx1): 50 mg/kg per os SID Day 1, 2, 3, therapeutic, 6.0 Gy",higher proportion of testes in minimal category
same,decreased cellularity of the bone marrow of both sternum and femur compared to vehicle-treated control Group 8,"[5]; Day 14 and 30 necropsies, Group 9 MH (POx1): 50 mg/kg per os SID Day 1, 2, 3, therapeutic, 6.0 Gy",lower severity of decreased cellularity
same,"bone marrow cellularity decrease, category","[5]; Day 30, Group 3 ML (IPx2): 25 mg/kg IP, Day −3 to 0 (6x), prophylactic, 5.8 Gy",minimal category
same,Supporting variable: Bone marrow celluarity (trend),[5]; [6],+
same,Supporting variable: Testes degradation (trend),[5]; [6],+
same,decrease of bone marrow cellularity,[5]; [9],did not show any significant changes
same,Supporting variable: Bone marrow celluarity (trend),[5]; [7],−
same,decrease of bone marrow cellularity,[5]; [7],did not show any significant changes
same,Supporting variable: Bone marrow celluarity (trend),[5]; [8],+
same,organ weights data,[5]; all test article groups,no test article-related changes
